“And” between values parts separate entries of the source, which are not always exact repeats. Identical values can stand only once. “Also recorded” adds a separate entry of the source. No end group written: not given here.

Series [1] concerns human microvascular endothelial cells (HMVECs). In words: VEGF-induced endothelial cell migration, modified Boyden chamber. The series is classed as cell-based. The note with it: VEGF 5 ng/ml; for concentration at which VEGF-induced EC migration was inhibited: 25 ng/ml peptide equimolar to 200 ng/ml endostatin. On the procedure:
Endostatin peptides were tested for anti-endothelial cell migration activity. Inhibition of VEGF-induced migration of human microvascular endothelial cells (HMVECs) was determined using several doses of endostatin peptides (FIG. 5). Human peptides were used because the cells were of human origin and the migration response of the HMVECs was assayed using a modified Boyden chamber. VEGF (5 ng/ml) was used a chemotactic agent and cells were challenged with human endostatin (Entremed; EM-ES), human Fc-Endostatin (nFcES), human P1 (hP1), human P2 (hP2), human P6 (hP6), and human P1-H1/3A (hP1-H1/3A). Total migration per membrane was quantified from the capture images using Scion Image Software (National Institutes of Health) and the unpaired Student T test was used for statistical analysis.
The motility response of HMVEC-d cells was assayed using a modified Boyden chamber. Cells were plated in T75-cm2 flasks at 0.5×10^6 cells per flask and allowed to grow for 48 h (˜70% confluent) prior to the migration assay. To facilitate cell adhesion, the upper membrane of a transwell ([…]; Costar) was coated with fibronectin ([…]; Becton Dickinson, Bedford, Mass.) for 1 h at 37° C. Coated membranes were rinsed with PBS and allowed to air dry immediately before use. Cells were detached by trypsinization, treated with trypsinization neutralization solution (Clonetics), and resuspended at a final concentration of 1×10^6 cells/ml in serum-free endothelial basal medium (EBM; Clonetics) containing 0.1% BSA. Cells (200,000 in 0.2 ml) were then treated with 0.2 ml of EBM/BSA containing endostatin or peptides at the indicated concentrations. Cells were incubated for 20 min. at 37° C. with occasional shaking. Cells (50,000 in 100 μl) were added to the upper chamber of the transwell. EBM or EBM supplemented with VEGF (5 ng/ml) was added to the lower chamber and cells were allowed to migrate toward the bottom chamber for 4 h in a humidified incubator containing 5% CO2. Transwell filters were rinsed once with PBS and fixed and stained using a Diff-Quik staining kit (Baxter) following the manufacturer's protocol. Non-migrated cells were removed from the upper chamber with a cotton swab. Stained filters were cut out of the chamber and mounted onto slides using Permount (Fisher). The number of migrated cells was measured using microscopy (three fields from each membrane were captured using a 40x objective), and images were captured with a CCD camera using SPOT software. Total migration per membrane was quantified from the captured images using Scion Image software (National Institutes of Health). All experiments were run in triplicate. The unpaired Student t-test was used for statistical analysis.

The subject of series [2] is LLC tumors. The series can be described thus: Lewis lung carcinoma (LLC) tumor model, systemic s.c. treatment. The series is classed as in vivo, C57B1/6J mice. The note with it: peptide s.c. twice a day, 2.8 mg/kg/d, vs PBS. On the procedure:
The murine LLC tumor model (O'Reilly et al. (1994) Cell, 79: 315-328) was used to further characterize these peptides because this tumor grows more rapidly than BxPC-3 cells, allowing for shorter treatment periods. Murine analogs of the endostatin peptides were synthesized. The only difference between the human and murine peptides was that murine P1 peptide contained 27 amino acids instead of 25 amino acids for human P1.
Control mice were treated with PBS. In these experiments, LLC cells were implanted into the s.c. dorsa of C57B1/6J mice, and systemically treated. Peptides (mP1, mP2, mP5, and mP6) were injected (s.c.) twice a day at a dose of 2.8 mg/kg/d, whereas endostatin and PBS were administered once a day at a dose of 20 mg/kg/d.
BxPC-3 and LLC cells were grown in cell culture as described above. […] Mice were shaved and the dorsal skin was cleaned with ethanol before tumor cell injection. A suspension of 5×10^6 tumor cells in 0.1 ml RPMI-1640 (for BxPC-3) or DMEM (for LLC) was injected subcutaneously (s.c.) into the dorsa of mice at the proximal midline. BxPC-3 cells were implanted in SCID mice and LLC in C57B1/6J mice.
Animals with Lewis Lung carcinoma (600-800 mm^3 tumors) were euthanized, and the skin overlying the tumor was cleaned with Betadine and ethanol. Tumor tissue was excised under aseptic conditions. A suspension of tumor cells in 0.9% normal saline was made by passage of viable tumor tissue through a sieve and a series of sequentially smaller hypodermic needles of diameter 22- to 30-gauge. The final concentration was adjusted to 1×10^7 cells/ml, and the suspension was placed on ice. The injection of tumor cells was performed as described above.
The mice were weighed and tumors were measured every 3-5 days in two diameters with a dial-caliper. Volumes were determined using the formula a^2×b×0.52 (where a is the shortest and b is the longest diameter). Data is represented as volume of treated tumor over control (T/C). At the completion of each experiment, the mice were euthanized with CO2 asphyxiation. Tumors were fixed in 10% buffered Formalin (Fisher Scientific, Fair Lawn, N.J.) and paraffin-embedded.
For treatment of tumor-bearing mice, tumor volumes were allowed to grow to approximately 100 mm^3, and mice were randomized. Treatment was performed by single bolus s.c. injections. Peptides were administered twice a day (every 12 hrs). Doses indicated for peptides were corrected for the purity of peptides (approximately 70%). For example, mice injected with 4 mg/kg/d peptide, were actually injected with 2.8 mg/kg/d after correction. The unpaired Student t-test was used for statistical analysis.

The subject of series [3] is LLC tumors. Described as above. The series is classed as in vivo, C57B1/6J mice. As to conditions: peptide at 14 mg/kg/d.
Series [4] concerns human pancreatic tumor cells BxPC-3. The series can be described thus: BxPC-3 tumor model, systemic s.c. treatment. The series is classed as in vivo, SCID mice. As to conditions: peptide s.c. twice a day, 7 mg/kg/d; for inhibition of BxPC-3 tumor: final measurement at 28 days, n=3, vs PBS. The protocol: These peptides were initially tested for anti-tumor activity employing the human pancreatic tumor cells BxPC-3 cells, which were implanted in the s.c. dorsa of SCID mice. For systemic treatment, human endostatin peptides, P1-P8, were administered subcutaneously (s.c.) twice a day at 7 mg/kg/d due to the high clearance rate from the mouse circulation. Full-length Fc-Endostatin, hFcES was administered subcutaneously only once per day at a dose of 20 mg/kg/d. PBS was used as a control.
Human BxPC-3 pancreatic adenocarcinoma and Lewis lung carcinoma (LLC) cells were grown and maintained as described earlier (Kisker et al. (2001) Cancer Res, 61:7669-7674; O'Reilly et al. (1994) Cell, 79: 315-328). For BxPC-3 tumor cell injection, cells were grown in 900-cm2 roller bottles. Human microvascular endothelial cells (HMVEC-d; Clonetics, Walkersville, Md.) were cultured in microvascular endothelial cell growth medium (EGM-2 MV; Clonetics) and maintained at 5% CO2 in a 37° C. humidified incubator. Recombinant human endostatin was a generous gift from EntreMed Corporation (Rockville, Md.) and recombinant human and murine FcEndostatin were prepared as described earlier (Bergers et al. (1999) Science, 284: 808-812). Human and murine endostatin peptides were synthesized by SynPep Corporation (Dublin, Calif.). Peptides were resuspended in PBS or 50 mM Tris, 150 mM NaCl, pH 7.5. PECAM, purified rat anti-mouse CD31, was obtained from BD Pharmingen (San Diego, Calif.) and human recombinant VEGF was obtained from the NIH (Bethesda, Md.).
BxPC-3 and LLC cells were grown in cell culture as described above. […] Mice were shaved and the dorsal skin was cleaned with ethanol before tumor cell injection. A suspension of 5×10^6 tumor cells in 0.1 ml RPMI-1640 (for BxPC-3) or DMEM (for LLC) was injected subcutaneously (s.c.) into the dorsa of mice at the proximal midline. […]
The mice were weighed and tumors were measured every 3-5 days in two diameters with a dial-caliper. Volumes were determined using the formula a^2×b×0.52 (where a is the shortest and b is the longest diameter). […]

A short description of series [5]: Water solubility of peptides. It is filed as physicochemical. The note with it: high concentrations, read-out: concentration at which not water soluble. The protocol: Peptides were approximately 1/7th-1/8th the size of full length endostatin. Three cysteines, 33,165,173, were replaced by alanines (underlined in Table 1), and cysteinel35 was omitted, to prevent the formation of disulfide bonds. Two additional lysines were added at the C-terminal of hP8 to increase its solubility (double underlined). Most peptides were water soluble, except for hP2 at high concentrations (>2.5 mg/ml). Also, all peptides were approximately 70% pure. However, no difference in tumor inhibition was observed when peptides of more than 95% purity were used.

Series [6] deals with vessel density (CD31) of LLC tumors. In words: Vessel density (CD31 staining) of LLC tumor sections. It is filed as in vivo, C57B1/6J mice. The note with it: peptide 2.8 mg/kg/d s.c. twice a day. On the procedure:
To determine the effect on angiogenesis after mP1 treatment, LLC tumors treated with mP1, mP2, and endostatin at equimolar concentration were analyzed for vessel density (CD31). […] In each case, peptides were administered twice a day s.c. and LLC tumor sections from day 13 were formalin-fixed paraffin-embedded and then stained with CD31 (PECAM). FIG. 2C show the determination of vessel density and the Y axis is expressed as % CD31/high power field (hpf).
To determine if Zn binding is also important for the anti-tumor property of endostatin, mP1 and mP1-H1/3A were tested using the LLC tumor model. Peptides were administered twice a day (s.c.) at a dose of 2.8 mg/kg/d. Peptide mPl inhibited LLC by 42% (p =0.031), whereas mPl-H1/3A had no effect (FIG. 3C). To determine if there was a difference in angiogenesis, vessel density (CD31) of LLC tumors was analyzed after mP1 and mP1-H1/3A treatment. […] The unpaired Student t test was used for statistical analysis.
Tumors were fixed in 10% buffered Formalin overnight at 4° C. The next day, tumors were washed three times in PBS and paraffin-embedded. Sections (5 μm) were permeabilized with 40 μg/ml proteinase K (Roche Diagnostics Corp.) in 0.2 M Tris-HCl buffer (pH 7.6) for 25 minutes at 37° C. and washed with PBS. PECAM (1:250) was incubated at 4° C. overnight. […] Vessel density (average of three fields) was determined by IPLab software. […]

With HPTWPQKSVWHGSDPNGRRLTESY [hP6], the “concentration at which VEGF-induced EC migration was inhibited” value in series [1] was 100 ng/mL and 200 ng/mL. For the same molecule, the “inhibition of EC migration” value in series [1] (concentrations lower than 100 ng/ml) is “no inhibition”; in series [1] (several doses), “inhibited EC migration but at higher concentrations than hPl”.

As for HPAWPQKSVWHGSDPSGRRLMESY [mP6], in the series on LLC tumors [2], the “anti-tumor effect on LLC” value is “No or insignificant activity”.

On to HTHQDFQPVLHLVALNTPLSGGMRGIR [mP1], for which the “inhibition of LLC tumor formation” value in the series with LLC tumors [3] is given as “inhibited LLC tumor formation less than at 2.8 mg/kg/d”. In addition, the “inhibition of LLC tumor” value in the series on LLC tumors [2] (2.8 mg/kg/day) was 44% and 42%.

Take HTHQDFQPVLHLVALNTPLS [mP1-20]: in the series on LLC tumors [2], the “anti-tumor effect on LLC” value is “inhibit tumor volume”.

For GSEGPLKPGARIFSFDGKDVLRHPT [hP5], the “inhibition of BxPC-3 tumor” value in series [4] turned out to be 29%.

Consider ATAQDFQPVLHLVALNTPLSGGMRGIR [mP1-H1/3A], for which the “anti-tumor effect on LLC” value in the series with LLC tumors [2] (2.8 mg/kg/day) is “no effect; also recorded: essentially not affected”.

In the case of HSHRDFQPVLHLVALNSPLSGGMRG [hP1], the “inhibition of BxPC-3 tumor” value in series [4] is 39%. Moreover, the “concentration at which VEGF-induced EC migration was inhibited” value in series [1] was found to be 25 ng/mL. The “inhibition of EC migration” value in series [1] (at 500 ng/ml) is reported as “no inhibition”; in series [1] (several doses), “more potent in inhibiting EC migration than full-length endostatin”.

For the molecule MRGIRGADFQAFQQARAVGLAGTFR [hP2], in series [5], the solubility was above 2500 µg/mL.

As for GSQGQVQPGARIFSFDGRDVLRHPA [mP5], the “anti-tumor effect on LLC” value with LLC tumors [2] is reported as “No or insignificant activity”.

Regarding HTHQDFQPVLHLVAL [mP1-15], in the series on LLC tumors [2], the “anti-tumor effect on LLC” value is “inhibit tumor volume”.

As to “MRGIRGA DFQAFQQARA VGLSGTFR (MRGIRGADFQAFQQARAVGLSGTFR) [mP2]”, the “inhibition of LLC tumor formation” value in the series on LLC tumors [3] is on record as “could inhibit LLC tumor formation as well as mP1 at 2.8 mg/kg/d”. In addition, the “anti-tumor effect on LLC” value in the series on LLC tumors [2] is “No or insignificant activity”. In series [6], the “effect on vessel density (CD31)” value is “no effect”.

Take TFRAFLSSRLQDLYSIVRRADRAAV [hP3]: the “anti-tumor effect on BxPC-3” value in series [4] (28 days) is given as “failed to inhibit tumor growth”.

B1: human endostatin (EntreMed): recombinant human endostatin, gift from EntreMed Corporation (protein, UniProt P39060 1572-1754, looked up)
Endostatin: HSHRDFQPVLHLVALNSPLSGGMRGIRGADFQCFQQARAVGLAGTFRAFLSSRLQDLYSIVRRADRAAVPIVNLKDELLFPSWEALFSGSEGPLKPGARIFSFDGKDVLRHPTWPQKSVWHGSDPNGRRLTESYCETWRTEAPSATGQASSLLGGRLLGQSAASCHHAYIVLCIENSFMTASK
modifications: Endostatin
notes: recombinant human endostatin, gift from EntreMed Corporation
Regarding B1, in series [1], the “concentration at which VEGF-induced EC migration was inhibited” value worked out at 200 ng/mL. In addition, the “concentration of best (slightly better) inhibition of EC migration” value in series [1] (U-shaped response) worked out at 200 ng/mL. In addition, the “inhibition of EC migration” value in series [1] (at 100 ng/ml) is reported as “not at 100 ng/ml”.

For the origin of these results see patent US7524811B2, “Anti-angiogenic peptides from the N-terminus of endostatin” (Children's Medical Center Corporation, priority 2003, dated 2009).
